Consider ten compounds from patent US8158317B2, “Azo dye compound, coloring composition, ink sheet for thermal transfer recording, thermal transfer recording method, color toner, ink for inkjet, and color filter” (FUJIFILM Corporation, priority 2006, dated 2012).

Holding throughout (format): physicochemical
A short description of data set [1]: Dye solubility when preparing the coating composition for dye-donating layer formation (ink sheet). On the set-up: key: A (soluble easily); B (soluble); C (soluble but hardly). To be noted: dye in coating composition with polyvinylbutyral resin, methyl ethyl ketone/toluene (1/1); three ranks. The text has this: A polyester film (Lumirror, Toray's trade name) having a thickness of 6.0 μm and coated with a thermoplastic acrylic resin (thickness, 1 μm) for heat-resistant lubrication on the back thereof was used as a support. The following coating composition for dye-donating layer formation was applied onto the surface of the support film, in a mode of wire bar coating, thereby forming a coating layer having a dry thickness of 1 μm thereon to give an ink sheet 1.
(Coating Composition for Dye-donating Layer Formation)
Next, ink sheets 2 to 5 of the invention and comparative ink sheets 6 to 8 were formed in the same manner as that for the ink sheet 1 but using the dye shown in Table 2 below in place of Compound (1). In this process, the dye solubility was evaluated in three ranks; A (soluble easily), B (soluble), C (soluble but hardly).

Data set [2] can be described thus: Light stability (lightfastness) of thermal transfer images under Xe light. To be noted: Xe light (17000 lux) for 7 days; density retentiveness ratio to original reflection density 1.0; three ranks. On the procedure:
Next, the recorded thermal transfer image-receiving materials were exposed to an Xe light (17000 lux) for 7 days and tested for the light stability (lightfastness) of the images. After the exposure, the status A reflection density of the part originally having a status A reflection density of 1.0 was measured, and the image stability was indicated by the density retentiveness ratio (percentage) to the original reflection density 1.0 before exposure. The samples were evaluated in three ranks, A (from 80% to less than 100%), B (from 60% to less than 80%), and C (less than 60%).

Data set [3] in a line: Maximum absorption wavelength of the absorption spectrum in ethyl acetate solution. To be noted: for Maximum Absorption Wavelength: concentration 1×10^−6 mol/L, optical path length 10 mm; for λmax: stated in the production example. The text has this:
The maximum absorption wavelength of the absorption spectrum in an ethyl acetate solution (concentration 1×10^−6 mol/L; optical path length, 10 mm) of these compounds is shown in Table 1 below.

For the compound `CCCCN(CCCC)C(=O)c1ccc2c(c1)C(=O)C(c1nc3ccc(C(C)C)cc3cc1O)C2=O` (stereo not drawn) [Comparative Dye 5, reference compound], the Solubility entry in data set [1] is “B”. Besides, in data set [2], the Lightfastness entry is given as “A (A (from 80% to less than 100%))”.

With `CCN(CC)C(=O)n1c(/N=N/c2ccc(N(CC)CC)cc2NC(C)=O)nc(C#N)c1C#N` [Comparative Dye 2, reference compound], in data set [1], the Solubility entry was “A”. Further, the Lightfastness result in data set [2] is on record as “B (B (from 60% to less than 80%))”.

Consider `CC(C)(C)c1nn(-c2ccccc2)c(N)c1/N=N/c1ccc([N+](=O)[O-])cc1` [Comparative Dye 1, reference compound], for which the Solubility result in data set [1] was “B”. The Lightfastness result in data set [2] is given as “B (B (from 60% to less than 80%))”.

As for `CCN(CCOc1ccc(C2CCCCC2)cc1)c1ccc(C=C(C#N)C#N)c(C)c1` [Comparative Dye 4, reference compound], the Solubility result in data set [1] is “A”. The Lightfastness entry in data set [2] is on record as “C (C (less than 60%))”.

With `COC(=O)n1c(/N=N/c2c(C(C)(C)C)nn(C)c2N)nc(C#N)c1C#N` [(5)], in data set [1], the Solubility result is recorded as “A”. Also, in data set [3], the “Maximum Absorption Wavelength” value was 451 nm. The Lightfastness result in data set [2] is “A (A (from 80% to less than 100%))”.

For `CCN(CC)C(=O)n1c(/N=N/c2c(C(C)(C)C)nn(C)c2N)nc(C#N)c1C#N` [Compound (1)], in data set [1], the Solubility result is reported as “A”. In addition, in data set [3], the “Maximum Absorption Wavelength” value was found to be 438 nm and the λmax stood at 438 nm. Also, in data set [2], the Lightfastness result was “A (A (from 80% to less than 100%))”.

For the compound `Cn1nc(C(C)(C)C)c(/N=N/c2nc(C#N)c(C#N)[nH]2)c1N` [Comparative Dye 3, reference compound], in data set [1], the Solubility result is given as “B”. The compound also displayed a λmax in data set [3] of 432 nm. Also, in data set [2], the Lightfastness entry is “C (C (less than 60%))”.

Consider `CC(=O)n1c(/N=N/c2c(C(C)(C)C)nn(C)c2N)nc(C#N)c1C#N` [(3)], for which, in data set [1], the Solubility entry is listed as “A”. The “Maximum Absorption Wavelength” value in data set [3] turned out to be 452 nm. The Lightfastness result in data set [2] is “A (A (from 80% to less than 100%))”.

Turning to `Cn1nc(C(C)(C)C)c(/N=N/c2nc(C#N)c(C#N)n2C(=O)c2ccccc2)c1N` [(4)], in data set [1], the Solubility result is recorded as “A”. Besides, the “Maximum Absorption Wavelength” value in data set [3] turned out to be 454 nm. In data set [2], the Lightfastness entry is “A (A (from 80% to less than 100%))”.

On to `CN(C)C(=O)n1c(/N=N/c2c(C(C)(C)C)nn(C)c2N)nc(C#N)c1C#N` [(2)], for which, in data set [1], the Solubility result is on record as “A”. Moreover, in data set [3], the “Maximum Absorption Wavelength” value was 439 nm. Also, the Lightfastness result in data set [2] was “A (A (from 80% to less than 100%))”.
